According to patent US20230348421A1, “5-HT2A RECEPTOR INHIBITOR OR INVERSE AGONIST, PREPARATION METHOD THEREFOR, AND APPLICATION THEREOF” (GENEORA PHARMA (SHIJIAZHUANG) CO., LTD., priority 2020, published 2023):

The molecules below were run against T1, 5-HT2A receptor (Homo sapiens (Human), UniProt P28223) (assay: Screening for 5-HT2A inverse agonistic activity (NIH3T3-5-HT2A R cells, Bright-Glo luciferase, 120 h)). Conditions: NIH3T3-5HT2AR cells, cell inhibition rate.
Assay type: cell-based
Protocol: • Cell lines: Adherent cells NIH3T3-5-HT2A R • Cell culture medium: DMEM+10% FBS (purchased from GBICO) • Cell culture plate: White-wall clear-bottom 96-well plate (purchased from Perkin Elmer) • Detection kit: Bright-Glo™ Luciferase (purchased from Promega) • Detection instrument: BioTek multifunctional microplate reader
NIH3T3-5HT2AR cells in the logarithmic growth phase were seeded into a white-wall clear-bottom 96-well plate at a density of 1000 cells per well, and cultured overnight in a 37° C., 5% CO2 incubator. […] On the sixth day, a Bright-Glo™ Luciferase reagent with a volume equal to that of cell sap was added to the cells, and the cells were incubated at room temperature in the dark for 20 min. […] The data was processed with GraphPad Prism 7.0 to obtain a cell inhibition rate curve, and the IC50 was calculated.
Cell inhibition rate (%)=[100−(Lum test drug−Lum culture solution)/(Lum cell control−Lum culture solution)×100]%

T1 sequence (P28223 whole entry): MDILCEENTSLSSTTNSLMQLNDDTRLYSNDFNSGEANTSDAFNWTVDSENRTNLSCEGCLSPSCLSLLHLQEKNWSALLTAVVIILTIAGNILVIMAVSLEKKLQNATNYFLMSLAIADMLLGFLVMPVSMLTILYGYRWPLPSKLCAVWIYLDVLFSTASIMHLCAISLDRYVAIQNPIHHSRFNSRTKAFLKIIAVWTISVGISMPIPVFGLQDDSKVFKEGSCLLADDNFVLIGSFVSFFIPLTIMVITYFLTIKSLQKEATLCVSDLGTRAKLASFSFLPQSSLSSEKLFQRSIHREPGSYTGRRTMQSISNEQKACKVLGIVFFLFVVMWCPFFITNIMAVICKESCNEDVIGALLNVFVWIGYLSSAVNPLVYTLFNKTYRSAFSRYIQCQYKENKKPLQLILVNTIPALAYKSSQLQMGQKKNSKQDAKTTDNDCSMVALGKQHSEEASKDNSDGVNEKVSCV

Structure (SMILES)	IC50
CCOc1ccc(CNC(=O)N(Cc2ccc(F)cn2)C2CCN(C)CC2)cc1 [Compound 49]	7.3 nM
CN1CCC(N(Cc2ccc(F)cc2)C(=O)NCc2ccc(OCCF)cc2)CC1 [Compound 56]	9.9 nM
CC(C)COc1ccc(CNC(=O)N(Cc2ccc(F)cc2)C2CCN(C)CC2)nc1 [Compound 19]	49.9 nM
CC(C)OCc1ccc(CNC(=O)N(Cc2ccc(F)cc2)C2CCN(C)CC2)cc1 [Compound 21]	34.1 nM
CN1CCC(N(Cc2ccc(F)cc2)C(=O)NCc2ccc(OCC(F)(F)F)cc2)CC1 [Compound 65]	18.4 nM
CC1(C)Cc2cc(CNC(=O)N(Cc3ccc(F)cn3)C3CCNCC3)ccc2O1 [Compound 23]	5.64 nM
CCN1CCC(N(Cc2ccc(F)cn2)C(=O)NCc2ccc3c(c2)CC(C)(C)O3)CC1 [Compound 48]	22.5 nM
CN1CCC(N(Cc2ccc(F)cn2)C(=O)NCc2ccc(OCCC(F)F)cc2)CC1 [Compound 92]	6.54 nM
CN1CCC(N(Cc2ncc(F)cc2F)C(=O)NCc2ccc(OC(C)(C)C)cc2)CC1 [Compound 81]	30.1 nM
CN1CCC(N(Cc2ccc(F)cn2)C(=O)NCc2ccc(OCC(F)(F)F)c(F)c2)CC1 [Compound 26]	9.79 nM
CN1CCC(N(Cc2ccc(F)cn2)C(=O)NCc2cc(Br)c3c(c2)CC(C)(C)O3)CC1 [Compound 77]	6.44 nM
CN1CCC(N(Cc2ccc(F)cn2)C(=O)NCc2ccc(OC(C)(C)C)cc2)CC1 [Compound 18]	1.12 nM
CN1CCC(N(Cc2ccc(F)cc2F)C(=O)NCc2ccc(OCCF)cc2)CC1 [Compound 75]	14.4 nM
CC(C)OCc1ccc(CNC(=O)N(Cc2ccc(F)cn2)C2CCN(C)CC2)cc1 [Compound 37]	42.8 nM
CC(C)COc1ccc(CNC(=O)N(Cc2ccc(F)cn2)C2CCN(CC3CCCCC3)CC2)cc1 [Compound 63]	20.8 nM
CN1CCC(N(Cc2ncc(F)cc2F)C(=O)NCc2ccc3c(c2)CC(C)(C)O3)CC1 [Compound 61]	31.2 nM
CN1CCC(N(Cc2ncc(F)cc2F)C(=O)NCc2ccc(OCCC(F)F)cc2)CC1 [Compound 93]	10.6 nM
CN1CCC(N(Cc2ccc(F)cn2)C(=O)NCc2ccc(OCC(F)F)cc2)CC1 [Compound 78]	6.01 nM
CN1CCC(N(Cc2ccc(F)cn2)C(=O)NCc2ccc3c(c2)C=CC(C)(C)O3)CC1 [Compound 99]	33.3 nM
CN1CCC(N(Cc2ccc(F)cn2)C(=O)NCc2ccc3c(c2)CCO3)CC1 [Compound 46]	11.1 nM
CC(C)CCc1ccc(CNC(=O)N(Cc2ccc(F)cn2)C2CCN(C)CC2)cc1 [Compound 52]	42.7 nM
CC(C)C(O)Cc1ccc(CNC(=O)N(Cc2ccc(F)cc2)C2CCN(C)CC2)cc1 (stereo not shown) [Compound 25]	16.9 nM
CN1CCC(N(Cc2ccc(F)cn2)C(=O)NCc2ccc(OC(F)(F)C(F)(F)F)cc2)CC1 [Compound 38]	10 nM

The molecules below were run against T1, 5-HT2A receptor (assay: Test for 5-HT2A antagonistic activity (calcium ion antagonism, FLIPR, CHO-K1/5-HT2A cells)). Conditions: 100 nM a-methyl-5-HT, Ca2+ signal.
Assay type: cell-based
Protocol: • Cell lines: CHO-K1/5-HT2A (Chempartner) • Cell culture medium: DMEM/F12+10% FBS (purchased from GBICO) • Cell culture plate: 384-well Assay Plate (purchased from Corning) • Detection kit: FLIPR® Calcium 4 Assay Kit (purchased from Molecular Devices)
After that, centrifugation was performed to remove the culture medium in the cell culture plate. Dye was added, and the cells were incubated in a 37° C., 5% CO2 incubator for another 1 h. The cell culture plate was placed on the FLIPR. A compound to be tested was added, and the Ca^2+ signal was detected, wherein the compound to be tested was subjected to 3-fold gradient dilution with PBS to obtain 10 concentrations, with the highest concentration of 10 uM, and double replicate wells were set up. […] In order to determine the test stability, risperidone was used as a positive control. The data were processed with GraphPad Prism 7.0 to obtain a cell inhibition rate curve, and the IC50 was calculated.
Inhibition rate (%)=100%−[(signal value of the compound to be tested−signal value of the test solution)/(the maximum signal value−the signal value of the test solution)]×100%

IC50	Structure (SMILES)
4.1 nM	CCOc1ccc(CNC(=O)N(Cc2ccc(F)cn2)C2CCN(C)CC2)cc1 [Compound 49]
6.94 nM	CC(C)COc1ccc(CNC(=O)N(Cc2ccc(F)cc2)C2CCN(C)CC2)nc1 [Compound 19]
2.1 nM	CC(C)OCc1ccc(CNC(=O)N(Cc2ccc(F)cc2)C2CCN(C)CC2)cc1 [Compound 21]
7.98 nM	CN1CCC(N(Cc2ccc(F)cc2)C(=O)NCc2ccc(OCC(F)(F)F)cc2)CC1 [Compound 65]
6.02 nM	CC1(C)Cc2cc(CNC(=O)N(Cc3ccc(F)cn3)C3CCNCC3)ccc2O1 [Compound 23]
3.14 nM	CCN1CCC(N(Cc2ccc(F)cn2)C(=O)NCc2ccc3c(c2)CC(C)(C)O3)CC1 [Compound 48]
2.78 nM	CN1CCC(N(Cc2ncc(F)cc2F)C(=O)NCc2ccc(OC(C)(C)C)cc2)CC1 [Compound 81]
5.75 nM	CN1CCC(N(Cc2ccc(F)cn2)C(=O)NCc2ccc(OC(C)(C)C)cc2)CC1 [Compound 18]
8.35 nM	CN1CCC(N(Cc2ccc(F)cc2F)C(=O)NCc2ccc(OCCF)cc2)CC1 [Compound 75]
3.32 nM	CN1CCC(N(Cc2ncc(F)cc2F)C(=O)NCc2ccc3c(c2)CC(C)(C)O3)CC1 [Compound 61]
6.73 nM	CC(C)C(O)Cc1ccc(CNC(=O)N(Cc2ccc(F)cc2)C2CCN(C)CC2)cc1 (stereo not shown) [Compound 25]

Structure (SMILES)	IC50
CN1CCC(N(Cc2ccc(F)cc2)C(=O)NCc2ccc(OCCF)cc2)CC1 [Compound 56]	5.77 nM
CN1CCC(N(Cc2ccc(F)cn2)C(=O)NCc2ccc(OCCC(F)F)cc2)CC1 [Compound 92]	4.64 nM
CN1CCC(N(Cc2ccc(F)cn2)C(=O)NCc2ccc(OCC(F)(F)F)c(F)c2)CC1 [Compound 26]	6.86 nM
CN1CCC(N(Cc2ccc(F)cn2)C(=O)NCc2cc(Br)c3c(c2)CC(C)(C)O3)CC1 [Compound 77]	6.59 nM
CC(C)OCc1ccc(CNC(=O)N(Cc2ccc(F)cn2)C2CCN(C)CC2)cc1 [Compound 37]	2.05 nM
CN1CCC(N(Cc2ncc(F)cc2F)C(=O)NCc2ccc(OCCC(F)F)cc2)CC1 [Compound 93]	4.26 nM
CN1CCC(N(Cc2ccc(F)cn2)C(=O)NCc2ccc(OCC(F)F)cc2)CC1 [Compound 78]	2.17 nM
CN1CCC(N(Cc2ccc(F)cn2)C(=O)NCc2ccc3c(c2)C=CC(C)(C)O3)CC1 [Compound 99]	17.3 nM
CN1CCC(N(Cc2ccc(F)cn2)C(=O)NCc2ccc3c(c2)CCO3)CC1 [Compound 46]	4.15 nM

The molecules below were run against hERG potassium channels (Homo sapiens (Human), UniProt Q12809) (assay: hERG inhibitory activity, whole-cell patch clamp in CHO-hERG cells). Conditions: read-out: hERG inhibitory activity IC50; CHO-hERG cells, whole-cell patch clamp, tail current at -50 mV.
Chain of hERG potassium channels (Q12809 whole entry): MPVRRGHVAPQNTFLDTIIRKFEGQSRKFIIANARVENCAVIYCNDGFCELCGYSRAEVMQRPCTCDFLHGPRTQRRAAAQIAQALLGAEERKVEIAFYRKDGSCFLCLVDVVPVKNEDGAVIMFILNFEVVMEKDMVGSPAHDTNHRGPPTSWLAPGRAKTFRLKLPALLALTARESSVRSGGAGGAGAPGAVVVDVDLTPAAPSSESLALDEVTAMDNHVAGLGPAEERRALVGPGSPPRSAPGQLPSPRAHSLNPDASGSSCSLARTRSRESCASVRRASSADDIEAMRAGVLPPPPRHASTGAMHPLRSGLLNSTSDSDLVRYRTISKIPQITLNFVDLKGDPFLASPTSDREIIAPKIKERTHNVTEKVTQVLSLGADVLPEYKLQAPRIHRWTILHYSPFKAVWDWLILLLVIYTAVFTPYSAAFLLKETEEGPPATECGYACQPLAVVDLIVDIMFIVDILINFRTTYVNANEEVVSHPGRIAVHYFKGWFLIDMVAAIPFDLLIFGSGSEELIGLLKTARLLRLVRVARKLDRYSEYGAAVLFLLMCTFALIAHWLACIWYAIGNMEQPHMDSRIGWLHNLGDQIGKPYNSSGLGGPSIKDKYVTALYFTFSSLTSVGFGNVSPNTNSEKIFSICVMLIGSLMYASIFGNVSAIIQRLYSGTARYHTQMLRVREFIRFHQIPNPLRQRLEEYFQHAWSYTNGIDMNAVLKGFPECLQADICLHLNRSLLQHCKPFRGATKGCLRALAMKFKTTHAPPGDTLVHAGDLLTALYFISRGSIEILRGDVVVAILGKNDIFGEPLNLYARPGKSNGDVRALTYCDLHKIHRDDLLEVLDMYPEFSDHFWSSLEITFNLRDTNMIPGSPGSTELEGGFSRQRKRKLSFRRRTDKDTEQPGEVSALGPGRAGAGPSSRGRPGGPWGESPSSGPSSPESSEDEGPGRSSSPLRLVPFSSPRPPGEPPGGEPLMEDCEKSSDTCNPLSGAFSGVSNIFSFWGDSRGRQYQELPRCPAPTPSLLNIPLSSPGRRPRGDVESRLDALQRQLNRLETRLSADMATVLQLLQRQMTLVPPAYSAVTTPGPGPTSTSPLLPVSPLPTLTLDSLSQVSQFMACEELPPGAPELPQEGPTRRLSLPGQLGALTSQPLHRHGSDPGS
Protocol: • Name: Dimethyl sulfoxide (DMSO)
• Species & strains: CHO-hERG cell lines (Chinese hamster ovary cells stably expressing hERG channels) • Culture medium: 90% F12, 10% fetal bovine serum, 100 μg/mL G418 and 100 μg/mL hygromycin B • Culture conditions: 5% CO2, 37° C. incubator • Freezing conditions: Liquid nitrogen
Digestion was performed at room temperature for 3-5 min. The digestion solution was pipetted, and the cells were resuspended in extracellular fluid and transferred to an experimental dish for electrophysiological recording for later use.
On the day of the test, the compound was diluted with DMSO to an intermediate concentration. 10 μL of compound with the intermediate concentration was taken, transferred to 4990 μL of extracellular fluid, and subjected to 500-fold dilution to obtain a final concentration to be tested.
CHO (Chinese Hamster Ovary) cells stably expressing hERG potassium channels were taken, and hERG potassium channel currents were recorded at room temperature by means of a whole-cell patch-clamp technique. A glass microelectrode was formed by pulling a glass electrode blank (BF150-86-10, Sutter) with a glass microelectrode puller. The tip resistance was about 2-5 MΩ after perfusion of a pippette solution. The glass microelectrode could be connected to a patch clamp amplifier by inserting the glass microelectrode into an amplifier probe. Clamping voltages and data recording were controlled and recorded by a computer with pClamp 10 software, with a sampling frequency of 10 kHz and a filtering frequency of 2 kHz. After the whole-cell recording was obtained, the cells were clamped at −80 mV, and the step voltage evoking hERG potassium current (I hERG) was changed from −80 mV to +20 mV by giving a 2 s depolarization voltage and then repolarized to −50 mV for 1 s, and returned to −80 mV. Such voltage stimulation was given every 10 s, and the administration process was started after it was determined that the hERG potassium currents were stable (1 min). The compound at each test concentration was given at least 1 min, and at least 2 cells (n≥2) were tested for each concentration.
Data analysis was performed by means of pClamp 10 and GraphPad Prism 5.0 software.
The formula for calculating the degree of inhibition of different compound concentrations on hERG potassium currents (the hERG tail current peak value evoked at −50 mV) was:
Y=Bottom+(Top−Bottom)/(1+10^((LogIC50−X)*HillSlope))
wherein X is a Log value of a test concentration of a test sample, Y is the inhibition percentage at a corresponding concentration, and Bottom and Top are the minimum inhibition percentage and the maximum inhibition percentage, respectively.

Structure (SMILES)	IC50
CCOc1ccc(CNC(=O)N(Cc2ccc(F)cn2)C2CCN(C)CC2)cc1 [Compound 49]	2430 nM
CC(C)COc1ccc(CNC(=O)N(Cc2ccc(F)cc2)C2CCN(C)CC2)nc1 [Compound 19]	480 nM
CC(C)OCc1ccc(CNC(=O)N(Cc2ccc(F)cc2)C2CCN(C)CC2)cc1 [Compound 21]	910 nM
CN1CCC(N(Cc2ccc(F)cc2)C(=O)NCc2ccc(OCC(F)(F)F)cc2)CC1 [Compound 65]	670 nM
CC1(C)Cc2cc(CNC(=O)N(Cc3ccc(F)cn3)C3CCNCC3)ccc2O1 [Compound 23]	> 10000 nM
CCN1CCC(N(Cc2ccc(F)cn2)C(=O)NCc2ccc3c(c2)CC(C)(C)O3)CC1 [Compound 48]	2400 nM
CN1CCC(N(Cc2ncc(F)cc2F)C(=O)NCc2ccc(OC(C)(C)C)cc2)CC1 [Compound 81]	680 nM
CN1CCC(N(Cc2ccc(F)cn2)C(=O)NCc2ccc(OCC(F)(F)F)c(F)c2)CC1 [Compound 26]	530 nM
CN1CCC(N(Cc2ccc(F)cn2)C(=O)NCc2ccc(OC(C)(C)C)cc2)CC1 [Compound 18]	850 nM
CC(C)OCc1ccc(CNC(=O)N(Cc2ccc(F)cn2)C2CCN(C)CC2)cc1 [Compound 37]	3990 nM
CN1CCC(N(Cc2ncc(F)cc2F)C(=O)NCc2ccc3c(c2)CC(C)(C)O3)CC1 [Compound 61]	2550 nM
CN1CCC(N(Cc2ccc(F)cn2)C(=O)NCc2ccc(OCC(F)F)cc2)CC1 [Compound 78]	1740 nM
CN1CCC(N(Cc2ccc(F)cn2)C(=O)NCc2ccc3c(c2)C=CC(C)(C)O3)CC1 [Compound 99]	650 nM
CN1CCC(N(Cc2ccc(F)cn2)C(=O)NCc2ccc3c(c2)CCO3)CC1 [Compound 46]	10400 nM
CC(C)C(O)Cc1ccc(CNC(=O)N(Cc2ccc(F)cc2)C2CCN(C)CC2)cc1 (stereo not shown) [Compound 25]	1030 nM
